Source: US7220876B2, “Arylcycloalkyl derivatives having branched side chains, processes for their preparation and their use as pharmaceuticals” (Sanofi-Aventis Deutschland GmbH, priority 2003, dated 2007)

Biological target: T1, human PPARalpha (Homo sapiens, UniProt Q07869)
T1 construct: human PPARalpha receptor (amino acids S167-Y468); expressed in transfected cells; host or cells: HEK (human embryo kidney) cells, stably transfected with pcDNA3 carrying the fusion construct
T1 sequence (Q07869 167-468): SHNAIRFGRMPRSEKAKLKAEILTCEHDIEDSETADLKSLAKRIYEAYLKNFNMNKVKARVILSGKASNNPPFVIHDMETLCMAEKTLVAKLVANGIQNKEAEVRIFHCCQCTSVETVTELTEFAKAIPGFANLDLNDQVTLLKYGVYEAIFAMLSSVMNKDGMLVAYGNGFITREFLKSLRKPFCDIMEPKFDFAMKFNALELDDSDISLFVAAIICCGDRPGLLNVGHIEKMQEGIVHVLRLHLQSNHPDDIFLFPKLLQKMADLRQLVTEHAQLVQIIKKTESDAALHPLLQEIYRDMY
Assay: Cellular PPARalpha assay (stably transfected HEK luciferase reporter cell line)
Format: cell-based
Details: GR-GAL4-humanPPARalpha-LBD, luciferase readout
Method: The potency of substances which bind to human PPARalpha and activate in an agonistic manner is analyzed using a stably transfected HEK cell line (HEK=human embryo kidney) which is referred to here as PPARalpha reporter cell line. It contains two genetic elements, a luciferase reporter element (pdeltaM-GAL4-Luc-Zeo) and a PPARalpha fusion protein (GR-GAL4-humanPPARalpha-LBD) which mediates expression of the luciferase reporter element depending on a PPARalpha ligand. The stably and constitutively expressed fusion protein GR-GAL4-humanPPARalpha-LBD binds in the cell nucleus of the PPARalpha reporter cell line via the GAL4 protein portion to the GAL4 DNA binding motifs 5′-upstream of the luciferase reporter element which is integrated in the genome of the cell line. There is only little expression of the luciferase reporter gene without addition of a PPARalpha ligand if fatty acid-depleted fetal calf serum (cs-FCS) is used in the assay. PPARalpha ligands bind and activate the PPARalpha fusion protein and thereby bring about expression of the luciferase reporter gene. The luciferase which is formed can be detected by means of chemiluminescence via an appropriate substrate.
The PPARalpha reporter cell line was prepared in 2 stages. Firstly, the luciferase reporter element was constructed and stably transfected into HEK cells. […] The minimal MMTV promoter section contains a CCAAT box and a TATA element in order to enable efficient transcription by RNA polymerase II. […] Then the complete Photinus pyralis gene (Genbank Accession # M15077) was cloned in 3′-downstream of the GAL4-MMTV element. After sequencing, the luceriferase reporter element consisting of five GAL4 binding sites, MMTV promoter and luciferase gene was recloned into a plasmid which confers zeocin resistance in order to obtain the plasmid pdeltaM-GAL4-Luc-Zeo. This vector was transfected into HEK cells in accordance with the statements in Ausubel, F. M. et al. (Current protocols in molecular biology, Vol. 1-3, John Wiley & Sons, Inc., 1995). […] In a second step, the PPARalpha fusion protein (GR-GAL4-humanPPARalpha-LBD) was introduced into the stable cell clone described. […] The cDNA of the ligand-binding domain of the human PPARalpha receptor (amino acids S167-Y468; Genbank Accession # S74349) was cloned in at the 3′-end of this GR-GAL4 construct. The fusion construct prepared in this way (GR-GAL4-humanPPARalpha-LBD) was recloned into the plasmid pcDNA3 (from Invitrogen) in order to enable constitutive expression therein by the cytomegalovirus promoter. This plasmid was linearized with a restriction endonuclease and stably transfected into the previously described cell clone containing the luciferase reporter element. The finished PPARalpha reporter cell line which contains a luciferase reporter element and constitutively expresses the PPARalpha fusion protein (GR-GAL4-human PPARalpha-LBD) was isolated by selection with zeocin (0.5 mg/ml) and G418 (0.5 mg/ml).
The activity of PPARalpha agonists is determined in a 3-day assay which is described below: […]

Row | Compound | EC50
1 | CCCCNC(=O)N(CCOC1CCCC(OCc2cccc(C)c2C(=O)O)C1)C(C)CC(C)C (mixture of isomers) [XXII, 2-(cis-3-{2-[3-butyl-1-((1S)/(1R),3-dimethylbutyl)-ureido]ethoxy}cyclohexyloxymethyl)-6-methylbenzoic acid] | 3.3 nM
2 | Cc1ccccc1NC(=O)N(CCO[C@H]1CCC[C@@H](OCc2cccc(C)c2C(=O)O)C1)C1CCCCC1 (racemic) [XV, 2-{cis-3-[2-(1-cyclohexyl-3-o-tolylureido)ethoxy]cyclohexyloxymethyl}-6-methylbenzoic acid] | 31 nM
3 | CCCCCCCN(CCO[C@H]1CCC[C@@H](OCc2cccc(C)c2C(=O)O)C1)C(=O)NCCCC (racemic) [XXXIX, 2-{cis-3-[2-(3-butyl-1-heptylureido)ethoxy]cyclohexyloxy-methyl}-6-methylbenzoic acid] | 0.17 nM
4 | CCCCCCCN(CCO[C@H]1CCC[C@@H](OCc2cccc(C)c2C(=O)O)C1)C(=O)Nc1ccccc1 [IX, 2-{(1R,3S)-3-[2-(1-heptyl-3-phenylureido)ethoxy]cyclohexyloxymethyl}-6-methylbenzoic acid] | 0.13 nM
5 | CCCCCN(CCO[C@H]1CCC[C@@H](OCc2cccc(C)c2C(=O)O)C1)C(=O)Nc1ccccc1 [VII, 2-{(1 R,3S)-3-[2-(1-pentyl-3-phenylureido)ethoxy]cyclohexyloxymethyl}-6-methylbenzoic acid] | 1.7 nM
6 | Cc1cccc(CO[C@@H]2CCC[C@H](OCCN(CC(C)(C)C)C(=O)Nc3ccccc3)C2)c1C(=O)O [VIII, 2-((1R,3S)-3-{2-[1-(2,2-dimethylpropyl)-3-phenylureido]ethoxy}cyclohexyloxymethyl)-6-methylbenzoic acid] | 96 nM
7 | CCCCNC(=O)N(CCO[C@H]1CCC[C@@H](OCc2cccc(C)c2C(=O)O)C1)Cc1ccc(C)cc1 [XII, 2-((1R,3S)-3-{2-[3-butyl-1-(4-methylbenzyl)ureido]ethoxy}-cyclohexyloxymethyl)-6-methylbenzoic acid] | 0.07 nM

More lines, in order of falling EC50, values ahead:

Row | EC50 | Compound
8 | 90 nM | Cc1cccc(CO[C@@H]2CCC[C@H](OCCN(C(=O)Nc3cccc(F)c3)C3CC3)C2)c1C(=O)O (racemic) [XLV, 2-(cis-3-{2-[1-cyclopropyl-3-(3-fluorophenyl)-ureido]ethoxy}cyclohexyloxymethyl)-6-methylbenzoic acid]
9 | 84 nM | CCCCNC(=O)N(CCO[C@H]1CCC[C@@H](OCc2cccc(C)c2C(=O)O)C1)C1CCCCC1 (racemic) [XVII, 2-{cis-3-[2-(3-butyl-1-cyclohexylureido)ethoxy]cyclohexyloxymethyl}-6-methylbenzoic acid]
10 | 38 nM | Cc1cccc(CO[C@@H]2CCC[C@H](OCCN(C(=O)Nc3cccc(F)c3)C3CCCCC3)C2)c1C(=O)O (racemic) [XVI, 2-(cis-3-{2-[1-cyclohexyl-3-(3-fluorophenyl)-ureido]ethoxy}cyclohexyloxymethyl)-6-methylbenzoic acid]
11 | 4.9 nM | Cc1cccc(CO[C@@H]2CCC[C@H](OCCN(CCc3ccc(Cl)cc3)C(=O)Nc3ccccc3)C2)c1C(=O)O [II, 2-{(1R,3S)-3-[2-(1-[2-(4-chlorophenyl)ethyl]-3-phenylureido)ethoxy]cyclohexyloxymethyl}-6-methylbenzoic acid]
12 | 1.9 nM | Cc1cccc(CO[C@@H]2CCC[C@H](OCCN(CCCc3ccccc3)C(=O)Nc3ccccc3)C2)c1C(=O)O [Example I, 2-{(1R,3S)-3-[2-(1-[3-phenylpropyl]-3-phenylureido)ethoxy]cyclohexyloxymethyl}-6-methylbenzoic acid]
